{
  "source": "patent US20030138375A1",
  "about": "“Individualization of therapy with Alzheimer's disease agents” (priority 2001, published 2003)",
  "key": {"[1]": {"test_system": "individuals with mild to moderate Alzheimer's disease", "conditions": "cited from earlier work"}, "[2]": {"conditions": "cited from earlier work"}, "AAMU-Ab": {"test_system": "AAMU-Ab", "assay": "Competitive antigen ELISA, cross-reactivity of AAMU-Ab", "assay_type": "binding, rabbit", "conditions": "0 = absence of inhibition or inhibition no higher than 40% at 5×10^−3 M", "protocol": "Buffers and water without additives are filtered through millipore filters and kept for 1 week. BSA, antibodies, Tween™ 20 and horse radish peroxidase conjugates are added to these buffers and water just prior to use. Urine samples are usually collected 4 hours after drinking a cup of coffee (instant or brewed with approximately 100 mg of caffeine per cup) and stored at −80° C. The urine samples are diluted 10 times with sodium phosphate buffer (620 mosm, pH 7.50) and are subsequently diluted with water to give concentrations of AAMU and 1X no higher than 3×10^−6 M in the ELISA. All the pipettings are done with an eight-channel pipette, except those of the antibody and sample solutions. Starting with the last well, 100 μL of a carbonate buffer (100 mM, pH 9.6) containing 2.5 μg mL^−1 antibodies are added to each well. After 90 min. at room temperature, the wells are washed three times with 100 mL of TPB: isotonic sodium phosphate buffer (310 mosm, pH 7.50) containing 0.05% Tween™ 20.\nAfter the initial wash, unoccupied sites are blocked by incubation for 90 min. at room temperature with 100 μL TBP containing 3% BSA. The wells are washed four times with 100 μL TPB. […] The microplate is gently shaken with an orbital shaker at room temperature for 3-4 hours. The wells are washed three times with 100 μL TPB containing 1% BSA and three times with water containing 0.05% Tween™ 20. […]"}},
  "note": "Where a name gives a salt, the structure may show the parent alone. Marks after values point to notes of the source that are not given here.",
  "data": [
    {"smiles": "COc1cc2c(cc1OC)C(=O)C(CC1CCN(Cc3ccccc3)CC1)C2", "note": "(racemic) [Donepezil, (±)-2,3-dihydro-5,6-dimethoxy-2-[[1-(phenylmethyl)-4-piperidinyl]methyl] -1H-inden-1-onehydrochloride]", "values": [
      {"measurement": "effect size on the ADAS-Cog vs placebo", "setting": "[1]; 5 mg or 10 mg per day, over 24 weeks", "value": "about 3 points"}
    ]},
    {"smiles": "COc1cc2c(cc1O)C(=O)C(CC1CCN(Cc3ccccc3)CC1)C2", "note": "(stereo not drawn) [6-O-desmethyl donepezil]", "values": [
      {"measurement": "plasma radioactivity, expressed as a percent of the administered dose", "setting": "[2]; 14C-labeled donepezil", "value": 11, "unit": "%"},
      {"measurement": "plasma concentration relative to donepezil", "setting": "[2]; in vivo", "value": "about 20%"}
    ]},
    {"smiles": "Nc1c2c(nc3ccccc13)CCCC2", "note": "[Tacrine]", "values": [
      {"measurement": "improvement in cognitive function on the ADAS-Cog", "setting": "[1]; 40 mg four times daily, over 12 weeks", "value": "about 2 points"},
      {"measurement": "persons who had to discontinue the drug due to side effects", "setting": "[1]; human, in vivo", "value": "up to half"}
    ]},
    {"smiles": "O=c1[nH]c(=O)c2[nH]cnc2[nH]1", "note": "[Xanthine]", "values": [
      {"measurement": "% Cross-Reaction AAMU-Ab", "setting": "AAMU-Ab", "value": "0^a %"}
    ]}
  ]
}
